This is an account of results in patent publication US20250312417A1, “Methods for Mitigating Lung Injury in Conjunction with Exposure to Radiation and/or Radiation or Radiomimetic Treatments” (Janssen Pharmaceutica NV, priority 2022, published 2025).

Assay [1] relates to mice exposed to 18 Gy WTI. Kind of assay: 8-month survival study after 18 Gy WTI. Type of assay: in vivo, C57BL/6 male mice. The protocol:
Mice were given a vehicle or TPOm injection (1 mg/kg), 1 day before irradiation (1×) or 1 day before irradiation and 7 days after radiation (2×) (n=10 for irradiated groups, n=5 for naïve). *P<0.05 vs. vehicle treated mice.
(§1) Methods: C57BL/6 male mice (9-12 weeks old) were administered with the TPOm RWJ-800088 (0.3 mg/kg) or PBS (vehicle) subcutaneously 1 day prior to whole thoracic radiation (WTI) at 16 Gy delivered by x-ray. Mice were sacrificed at 2 weeks and 7 months (n=5/time point/group) post-WTI to collect the lung tissues for various analysis. Groups of mice (n=10/group) exposed to 18 Gy WTI were also subjected to an 8-month survival study.

In assay [2] the test system is lungs of mice after whole thoracic radiation (WTI). The experiment in a line: Collagen deposition in lungs by Trichrome Blue staining post-WTI. The assay is classed as in vivo, C57BL/6 male mice. Particulars: 7 months post-WTI 16 Gy; 0.3 mg/kg subcutaneously 1 day prior to WTI; p<0.05. The protocol:
FIGS. 3A-3B show the effect of TPOm-pretreatment (1 day before irradiation at 0.3 mg/kg body weight by subcutaneous injection) on collagen deposition in lungs of mice at 7 months post-WTI. […] 200× total magnification.
as §1

Assay [3] shares this test system. Kind of assay: Pulmonary density by microCT post-WTI. Type of assay: in vivo, C57BL/6 male mice. Conditions: 7 months post-WTI 16 Gy; 0.3 mg/kg subcutaneously 1 day prior to WTI; p<0.05. The protocol: FIGS. 5A-5C show the effect of TPOm-pretreatment (1 day before irradiation at 0.3 mg/kg body weight by subcutaneous injection) on pulmonary density of mice at 7 months post-WTI. Pulmonary density imaged by microCT and measured by microCT analysis software. […] (n=3 for Naïve, n=5 for vehicle and n=4 for TPOm pretreatment). *P <0.05 vs. vehicle treated mice.
as §1

Assay [4] has the same test system. The experiment in a line: Proinflammatory chemokine mRNA expression in lungs after whole thoracic radiation (WTI) 16 Gy. Type of assay: in vivo, C57BL/6 male mice. Conditions: 2 weeks post-WTI 16 Gy; 0.3 mg/kg subcutaneously 1 day prior to WTI; p<0.05. The protocol: Lung data is presented as fold change of chemokine expression normalized to Hprt1 expression (n=5 for Naïve, n=5 for Vehicle (phosphate buffered saline) and TPOm pretreatment). Expression in the naive group is designated as 1 for comparison. Data are shown as means±SE. *P<0.05 vs. vehicle treated mice.
as §1

The test system is the same in assay [5]. Kind of assay: Myeloperoxidase (MPO) staining of lung sections for neutrophil infiltration post-WTI. The assay is classed as in vivo. Particulars: post-WTI 16 Gy; 0.3 mg/kg subcutaneously 1 day before irradiation; FIG. 7C. How it is done:
(§2) FIGS. 7A-C show TPOm-pretreatment (1 day before irradiation at 0.3 mg/kg body weight by subcutaneous injection) on neutrophil infiltration of mice measured at 7 months post-WTI. […] 400× total magnification. […] Data are shown as means±SE. *P<0.05, ***P<0.0001.
as §1
At the time of harvest, the right lung was fixed with 10% formalin, then embedded and sectioned at […]. Anti-myeloperoxidase (MPO) antibody was obtained from Abcam (Cambridge, MA, USA). Immunoreactivity was visualized by ImmPACT histochemistry (Vector Labs, Burlingame, CA, USA) with hematoxylin counter staining. For quantitation of MPO+ cells in lung tissue, images were analyzed with ImageJ software (National Institutes of Health); stained cells were counted using the “analyze particles” module to assess positive staining. Data were quantified from 3 fields of 1 section per animal, and 5 animals per group.

For assay [6] the test system is unchanged. Kind of assay: Protein in bronchoalveolar lavage by bicinchoninic acid assay (BCA) post-WTI. The assay is classed as in vivo, C57BL/6 male mice. Conditions: 2 weeks post-WTI 16 Gy; 0.3 mg/kg subcutaneously 1 day prior to WTI; p<0.05. How it is done: (§3) FIGS. 2A-2B show the effect of TPOm-pretreatment (1 day before irradiation at 0.3 mg/kg body weight by subcutaneous injection) on immune cell infiltration and permeability in the lungs of mice at 14 days post-WTI. […] 200× total magnification.
as §1

Assay [7] shares this test system. The experiment in a line: H&E staining of lung sections for cellularity and immune infiltration post-WTI. Particulars: 2 weeks post-WTI 16 Gy; 0.3 mg/kg subcutaneously 1 day prior to WTI. Type of assay: in vivo, C57BL/6 male mice. The protocol: as §3, §1
Assay [8] has the same test system. Kind of assay: Senescence marker mRNA expression in lungs (qPCR) post-WTI. The assay is classed as in vivo, C57BL/6 male mice. Particulars: 7 months post-WTI 16 Gy; 0.3 mg/kg subcutaneously 1 day prior to WTI; p<0.05. How it is done: FIGS. 4A-4C show the effect of TPOm-pretreatment (1 day before irradiation at 0.3 mg/kg body weight by subcutaneous injection) on senescence gene mRNA and protein expression in lungs of mice at 7 months post-WTI. mRNA and protein levels assessed by qPCR and western blot, respectively. […] Data are shown as means±SE. *P <0.05 vs. vehicle treated mice. […] Expression in the naive group is designated as 1 for comparison.
as §1
A general note: Real-time PCR tracks product formation cycle by cycle.

The test system is the same in assay [9]. The experiment in a line: KC protein in whole lung lysate by ELISA post-WTI. Particulars: post-WTI 16 Gy; 0.3 mg/kg subcutaneously 1 day before irradiation; FIG. 7A. The assay is classed as in vivo. The protocol: as §2, §1
Methods: Mice were treated as described in Example 1. Whole lung lysate was prepared from left lung tissue at the time of harvest. KC ELISA kit (R&D Systems, #DY453) was used according to manufacturer's instructions. For each sample, 2 replicates were measured for KC protein.
For orientation: In an ELISA, binding on a coated surface is turned into a signal by an enzyme label.

“methoxypolyethyleneglycol20000-propionyl-L-Isoleucyl-L-Glutamyl-Glycyl-L-Prolyl-L-Threonyl-L-Leucyl-L-Arginyl-L-Glutaminyl-L-2-Naphthylalanyl-L-Leucyl-L-Alanyl-L-Alanyl-L-Arginyl-Sarcosyl-Ne-(methoxypolyethyleneglycol20000-propionyl-L-Isoleucyl-L-Glutamyl-Glycyl-L-Prolyl-L-Threonyl-L-Leucyl-L-Arginyl-L-Glutaminyl-L-2-Naphthylalanyl-L-Leucyl-L-Alanyl-L-Alanyl-L-Arginyl-Sarcosyl-)-Lysinamide [TPOm]”: the survival in assay [1] (vehicle 0%, p<0.01) came to 40%. The mortality entry in assay [1] (vs vehicle) is given as “significantly delayed in mortality”. Moreover, the “collagen deposition, lower than vehicle (Trichrome Blue staining)” value in assay [2] was 31%. Further, in assay [3], the “density in lungs by microCT, less than vehicle” value worked out at 21%. In addition, in assay [4], the “mRNA expression of proinflammatory chemokine KC in lungs, lower than vehicle” value is given as 37% and the “mRNA expression of proinflammatory chemokine MCP1 in lungs, lower than vehicle” value is 39%. For the same substance, the “alveolar neutrophil accumulation (MPO staining)” value in assay [5] is recorded as “alveolar neutrophil accumulation in significantly greater numbers than mice treated with TPOm”. Further, the “protein leaked to bronchoalveolar lavage fluid, less than vehicle” value in [6] came out at 28%. Moreover, the “cellularity by H&E staining” value in assay [7] was “higher cellularity in vehicle compared to TPOm treated mice”. The “mRNA levels of senescence marker p21, lower than vehicle” value in [8] amounted to 52%. Further, in [9], the “protein expression of KC in the lung (ELISA)” value is given as “significantly reduced in the TPOm (RWJ-800088) group to a level similar to naïve”.
